Values joined by “and” are separate entries in the source; they are usually repeats but may differ in a detail not shown here. Identical values can stand only once.
Assays:
[1] = test system: MCF-7 (human breast adenocarcinoma); test: Clonogenic survival (surviving fraction) of MCF-7 cells after radiation or chemotherapeutic agent; format: cell-based
Description: (§1) MCF-7 (human breast adenocarcinoma), LoVo (human colon adenocarcinoma) and LNCaP (human prostate carcinoma) were obtained from the American Type Culture Collection. Cells were maintained as described in Paglin et al., 1997, Biochem. Biophs. Res. Comm. 237:678-684). Irradiation was carried out 48 hours post-plating (T0) at room temperature using a Cs-137 irradiator (Sheperd Mark-I, model 68, SN643) at a dose rate of 2.43-2.32 Gy/min. Bovine aortic endothelial cells were grown and treated with H2O2 as described in Haimovitz-Friedman et al., 1994, J. Exp. Med. 180:525-535 and Verhij et al., 1996, Nature 380:75-79. Phorbol 12-myristate 13-acetate (PMA; Alexis Biochemicals Corp., San Diego, Calif.) was dissolved in dimethyl sulfoxide (DMSO) and added to cells for the duration of one hour. The final DMSO concentration was 0.03%. The cells were then rinsed with warm growth medium before being returned to the incubator for an additional 48 hours.
(§2) Cells were plated in growth medium at a density of 30-90 cells per square centimeter and irradiated 22 hours later. Each experimental condition was done in quintet or triplicate. Cells were irradiated at room temperature in Cs-137 Irradiator (Sheperd Mark-I, Model 68, SN 643) at a rate of 2.43-2.32 Gy/min. […] For determination of their red to green ratio, colonies were processed as described above. For determination of surviving fractions cells were stained with crystal violet and colonies containing 50 cells or more were counted with a dissecting microscope. The surviving fraction was defined as the ratio between the plating efficiencies of irradiated and non-irradiated cells and was calculated at each dose level according to Hall and Phill (1994, […] for the Radiologist, 4th Edition, J. Lippincott Co., Philadelphia).

[2] = test system: LoVo (human colon adenocarcinoma); test: Clonogenic survival (surviving fraction) of LoVo cells after radiation or chemotherapeutic agent; format: cell-based
Description: as §1, §2

V-ATPase [3] = target: T1, V-ATPase (Homo sapiens, UniProt P27449); details: Gagliardi et al., 1999; cited from earlier work
T1 sequence (P27449 whole entry): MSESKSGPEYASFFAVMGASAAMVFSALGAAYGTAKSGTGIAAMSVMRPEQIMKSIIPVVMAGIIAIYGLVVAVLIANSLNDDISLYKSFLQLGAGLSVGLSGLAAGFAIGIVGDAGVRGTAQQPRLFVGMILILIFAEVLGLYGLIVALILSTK

V-ATPase [4] = target: T1, V-ATPase; details: binding to V-ATPase; Drose and Altendorf, 1997; cited from earlier work
F and P-type ATPases = details: cited from earlier work
[5] = test system: Capan-1 human pancreatic cancer cell line; details: Capan-1 in vitro; cited from earlier work
Capan-1 xenograft tumor = details: subcutaneous, doses smaller than 1 mg/kg/day; cited from earlier work
[6] = subcutaneous, doses smaller than 1 mg/kg/day, cited from earlier work
[7] = cited from earlier work
[8] = Bafilomycin A1 8 nM, no radiation
[9] = subcutaneous, 1.4 mol/kg/day for 14 days

## bafilomycin A1
[1]; 2 nM bafilomycin A1, 300 cGy, two separate experiments
  reduction of survival of irradiated cells: 45% and 32%
[1]; Baf A1 2nM added at irradiation for 24 hours, 2 Gy
  Surviving fraction in the presence of Baf A1 (2nM): 0.51 ± 0.07
[1]; Baf A1 2nM added at irradiation for 24 hours, 3 Gy
  Surviving fraction in the presence of Baf A1 (2nM): 0.23 ± 0.05
[1]; Baf A1 2nM for 24 hours, 0 Gy, listed as Baf A1
  Surviving fraction in the presence of Baf A1 (2nM): 0.9 ± 0.14
[1]; Baf A1 2nM for 24 hours, 0 Gy, listed as bafilomycin A1
  Surviving fraction in the presence of Baf A1 (2nM): without significantly affecting
[1]; Bafilomycin A1 8 nM, 2 Gy
  Normalized Surviving Fraction: 0.47
  Plating Efficiency: 43 ± 7.7
  Surviving Fraction: 0.26
[1]; Bafilomycin A1 8 nM, 4 Gy
  Normalized Surviving Fraction: 0.11
  Plating Efficiency: 21 ± 3.4
  Surviving Fraction: 0.06
[1]; Bafilomycin A1 8 nM, 6 Gy
  Normalized Surviving Fraction: 0.23
  Plating Efficiency: 7 ± 3
  Surviving Fraction: 0.01
[1]; [8]
  Normalized Surviving Fraction: 1
  Plating Efficiency: 98 ± 12
  Surviving Fraction: 0.59
[1]; MCF-7, 2 nM bafilomycin, 100 nM adriamycin
  decrease of survival: 34%
[1]; Table 4, 2 nM bafilomycin A1, 2 Gy
  Surviving Fraction: 0.51 ± 0.07
[1]; Table 4, 2 nM bafilomycin A1, 4 Gy
  Surviving Fraction: 0.17 ± 0.02
[1]; Table 4, 2 nM bafilomycin A1, 6 Gy
  Surviving Fraction: 0.02 ± 0.003
[1]; Table 4, 2 nM bafilomycin A1, 200 cGy
  decrease of survival following irradiation: 27%
[1]; Table 4, 2 nM bafilomycin A1, 400 cGy
  decrease of survival following irradiation: 37%
[1]; Table 5, 2 nM bafilomycin A1, 200 cGy
  decrease of cell survival following irradiation: 19%
[1]; Table 5, 2 nM bafilomycin A1, 400 cGy
  decrease of cell survival following irradiation: 13%
[1]; Table 5, 2 nM bafilomycin A1, Radiation Dose (cGy) 0
  Surviving Fraction: 1 ± 0.07
[1]; Table 5, 2 nM bafilomycin A1, Radiation Dose (cGy) 2
  Surviving Fraction: 0.57 ± 0.04
[1]; Table 5, 2 nM bafilomycin A1, Radiation Dose (cGy) 4
  Surviving Fraction: 0.27 ± 0.01
[1]; Table 5, 2 nM bafilomycin A1, Radiation Dose (cGy) 6
  Surviving Fraction: 0.05 ± 0.01
[1]; Table 6, 2 nM bafilomycin, 3 Gy
  reduction of survival: 37%
[1]; Table 6, 2 nM bafilomycin, X radiated 3 Gy
  Surviving Fraction: 0.28 ± 0.03
[1]; Table 6, 4 nM bafilomycin, C non-irradiated control
  Surviving Fraction: 0.7 ± 0.03
[1]; Table 6, 4 nM bafilomycin, X radiated 3 Gy
  Surviving Fraction: 0.2 ± 0.03
[1]; Table 6, 8 nM bafilomycin, C non-irradiated control
  Surviving Fraction: 0.66 ± 0.05
[1]; Table 6, 8 nM bafilomycin, X radiated 3 Gy
  Surviving Fraction: 0.14 ± 0.02
[1]; Table 6, 16 nM bafilomycin, C non-irradiated control
  Surviving Fraction: 0.52 ± 0.05
[1]; Table 6, 16 nM bafilomycin, X radiated 3 Gy
  Surviving Fraction: 0.12 ± 0.03
[1]; Table 7, 2 nM bafilomycin A1, C non-irradiated
  Surviving Fraction: does not significantly affect
[1]; Table 7, 2 nM bafilomycin A1, C non-irradiated, listed as bafilomycin Al
  Surviving Fraction: 0.92 ± 0.06
[1]; Table 7, 2 nM bafilomycin A1, X radiated 3 Gy
  Surviving Fraction: 0.22 ± 0.04
[1]; Table 7, 2 nM bafilomycin, 300 cGy
  reduction of cell survival: 49%
[1]; Table 7, 4 nM bafilomycin A1, C non-irradiated
  Surviving Fraction: 0.79 ± 0.04
[1]; Table 7, 4 nM bafilomycin A1, X radiated 3 Gy
  Surviving Fraction: 0.16 ± 0.04
[1]; Table 7, 8 nM bafilomycin A1, C non-irradiated
  Surviving Fraction: 0.60 ± 0.08
[1]; Table 7, 8 nM bafilomycin A1, X radiated 3 Gy
  Surviving Fraction: 0.12 ± 0.02
[1]; Table 7, 16 nM bafilomycin A1, C non-irradiated
  Surviving Fraction: 0.35 ± 0.05
[1]; Table 7, 16 nM bafilomycin A1, X radiated 3 Gy
  Surviving Fraction: 0.09 ± 0.04
[1]; Table 15, MCF-7, Bafilomycin 2 nM alone
  survival (head of column empty): 0.95 ± 0.1
[1]; Table 15, MCF-7, Bafilomycin 4 nM + 100 nM adriamycin
  survival, column Adriamycin: 0.35 ± 0.05
[1]; Table 15, MCF-7, Bafilomycin 4 nM alone
  survival (head of column empty): 0.61 ± 0.05
[1]; Table 18, MCF-7, Bafilomycin A1 2 nM + Etoposide 0.05 μg/ml
  cell survival, Bafilomycin A1 (2 nM): 0.36 ± 0.08
[1]; bafilomycin A1 for 24 hours following irradiation with 2 and 3 Gy
  reduction of the surviving fraction: 30%-40%
[2]; 2 nM bafilomycin, 100 nM Adriamycin
  decrease of survival of cells exposed to Adriamycin: 22%
[2]; 2 nM bafilomycin, 3 Gy, Table 11 and Table 12
  decrease of survival: 43% and 24%
[2]; 2 nM bafilomycin, Adriamycin 100 nM, 48 hours
  decrease of resistance to Adriamycin: 35%
[2]; 2 nm bafilomycin A1, 2 Gy
  decrease of survival: 25%
[2]; 2 nm bafilomycin A1, 3 Gy
  decrease of survival: 30%
[2]; Table 11, Bafilomycin A1 2 nM
  Surviving Fraction 0 Gy: 1.14 ± 0.09
[2]; Table 11, Bafilomycin A1 2 nM, 3 Gy
  Surviving Fraction 3 Gy: 0.24 ± 0.08
[2]; Table 11, Bafilomycin A1 4 nM
  Surviving Fraction 0 Gy: 1.01 ± 0.03
[2]; Table 11, Bafilomycin A1 4 nM, 3 Gy
  Surviving Fraction 3 Gy: 0.23 ± 0.02
[2]; Table 11, Bafilomycin A1 8 nM
  Surviving Fraction 0 Gy: 0.84 ± 0.12
[2]; Table 11, Bafilomycin A1 8 nM, 3 Gy
  Surviving Fraction 3 Gy: 0.19 ± 0.04
[2]; Table 12, Bafilomycin 2 nM
  Surviving Fraction 0 Gy: 0.92 ± 0.05
[2]; Table 12, Bafilomycin 2 nM, 3 Gy
  Surviving Fraction 3 Gy: 0.16 ± 0.01
[2]; Table 12, Bafilomycin 4 nM
  Surviving Fraction 0 Gy: 0.84 ± 0.03
[2]; Table 12, Bafilomycin 4 nM, 3 Gy
  Surviving Fraction 3 Gy: 0.08 ± 0.02
[2]; Table 13, 2 nM Bafilomycin, Dose 0 Gy
  Surviving Fraction 2 nM Bafilomycin: 0.78 ± 0.05
[2]; Table 13, 2 nM Bafilomycin, Dose 2 Gy
  Surviving Fraction 2 nM Bafilomycin: 0.24 ± 0.03
[2]; Table 13, 2 nM Bafilomycin, Dose 3 Gy
  Surviving Fraction 2 nM Bafilomycin: 0.11 ± 0.03
[2]; Table 14, 2 nM Bafilomycin + Adriamycin 50 nM
  Surviving Fraction 2 nM Bafilomycin: 0.73 ± 0.08
[2]; Table 14, 2 nM Bafilomycin + Adriamycin 100 nM
  Surviving Fraction 2 nM Bafilomycin: 0.60 ± 0.05
[2]; Table 14, 2 nM Bafilomycin + Adriamycin 150 nM
  Surviving Fraction 2 nM Bafilomycin: 0.38 ± 0.03
[2]; Table 14, 2 nM Bafilomycin, Adriamycin 0 nM
  Surviving Fraction 2 nM Bafilomycin: 0.93 ± 0.05
[2]; Table 17, Bafilomycin A1 2 nM + Adriamycin 100 nM, 48 hours
  survival, Adriamycin 100 nM: 0.65 ± 0.05
[2]; Table 17, Bafilomycin A1 2 nM alone, 48 hours
  survival (head of column empty): 0.86 ± 0.04
[2]; Table 17, Bafilomycin A1 4 nM + Adriamycin 100 nM, 48 hours
  survival, Adriamycin 100 nM: 0.4 ± 0.01
[2]; Table 17, Bafilomycin A1 4 nM alone, 48 hours
  survival (head of column empty): 0.61 ± 0.04
[2]; Table 19, Bafilomycin 2 nM + Etoposide 0.05 μg/ml
  cell survival, Bafilomycin (2 nM): 0.59 ± 0.08
[2]; Table 19, Bafilomycin 2 nM, Etoposide 0 μg/ml
  cell survival, Bafilomycin (2 nM): 1.16 ± 0.07
[2]; bafilomycin 2 nM, etoposide 0.05 μg/ml
  decrease of survival in the presence of etoposide: 25%
V-ATPase [3]
  concentration range that inhibits V-H+-ATPase activity without affecting F or P-type ATPases: nM range
V-ATPase [4]
  Kd: 10 nM
F and P-type ATPases
  concentration range at which F and P-type ATPases activities are affected: μM range
[5]
  concentrations reported to induce apoptosis: greater than 10 nM
Capan-1 xenograft tumor
  effect on Capan-1 xenograft tumor: apoptotic death of Capan-1 cells in their xenograft tumor and overall shrinkage of the tumors
[6]; four weeks treatment
  histological examination of organs: did not affect the liver, pancreas, small intestine, kidney or lung
[6]; up to four weeks, Ohta et al., 1998
  growth of nude mice: did not affect the growth
[7]; intravenous, Keeling, 1997
  toxicity when injected intravenously: toxic
[7]; [9]
  bone readsorption: increased bone readsorption
  toxicity: non-toxic
[7]; subcutaneous
  tolerability when administered subcutaneously: tolerated

Reference: patent US6982252B2, “Inhibition of vacuolar proton ATPase activity and/or the modulation of acidic organelle function sensitizes cells to radiation, chemotherapy and biological agents” (Memorial Sloan-Kettering Cancer Center, priority 2000, dated 2006)
